Test results from patent US20160368992A1, “A METHOD OF INCREASING GIPCR SIGNALIZATION IN THE CELLS OF A SCOLIOTIC SUBJECT” (CHU SAINTE-JUSTINE, priority 2013, published 2016).

Key:
[1] = system: GsPCR signaling; assay: CDS response to GsPCR stimulation (isoproterenol, desmopressin) in MC3T3-E1 cells; format: cell-based
Source text: Taken into account these considerations and having observed that genetic deletion of OPN inversely influenced response to Gi and Gs stimulation (FIG. 1), it was of interest to examine the effect of OPN on the functional and phosphorylation status of Gs protein and on its interaction with receptors. For this purpose, cells were subjected to isoproterenol and desmopressin in the presence of rOPN or PBS. As expected, response to isoproterenol was higher in rOPN than in PBS-treated cells.
Assuming that inhibition of Gi protein and phosphorylation of Gs protein are responsible for the increased GsPCR signaling associated with rOPN, the next experiments aimed to determine the contribution of each parameter. For this purpose, cells were treated with PTX to mimic disruption action of rOPN and compared to cells treated with rOPN alone or in combination with Src inhibitor (PP2) to prevent tyrosine phosphorylation. […] This modest difference was abolished by Src inhibitor (PP2). Similar observations were noted when cells were stimulated with desmopressin.

[2] = system: GiPCR signaling; assay: CDS integrated response to GiPCR ligands in MC3T3-E1 osteoblastic cell line; format: cell-based; conditions: MC3T3-E1 cells treated with rOPN prior to stimulation
Procedure: The functional evaluation of Gi, Gs and Gq proteins was assessed by CDS assays using osteoblasts cells derived from C57Bl/6j WT and C57Bl/6j OPN^−/− mice (bipedal and quadrupedal) using CellKey™ apparatus, as previously described (Akoume et al., 2010, and WO 2010/040234 to Moreau et al.).
MC3T3-E1 cells were used to check the effect of the knockdown of OPN and its receptors. MC3T3-E1 osteoblasts cells were transiently transfected in serum-free medium, using Lipofectamine™ RNAiMAX reagent (Invitrogen) according to the manufacturer's instructions and functional experiments were performed 48 h post transfection. The sequence of RNA oligonucleotides used for the knockdown of different genes are, ssp1 (encodes OPN) (CCACAGCCACAAGCAGUCCAGAUUA (SEQ ID NO: 9)), integrin β1 (CCUAAGUCAGCAGUAGGAACAUUAU (SEQ ID NO: 10)), integrin β3 (CCUCCAGCUCAUUGUUGAUGCUUAU (SEQ ID NO: 11)), integrin α5 (CCGAGUACCUGAUCAACCUGGUUCA (SEQ ID NO: 12)), integrin α8 (GAGAUGAAACUGAAUUCCGAGAUAA (SEQ ID NO: 13)), integrin αv (GACUGUUGAGUAUGCUCCAUGUAGA (SEQ ID NO: 14 and CD44 (GAACAAGGAGUCGUCAGAAACUCCA (SEQ ID NO: 15)). Two other siRNAs against integrin α5 were tested (UCCACCAUGUCUAUGAGCUCAUCAA (SEQ ID NO:16) and UCAGGAGCAGAUUGCAGAAUCUUAU (SEQ ID NO:17)).
To further investigate the role of OPN in Gi protein-mediated receptor signaling, several lines of experiments were performed using MC3T3-E1 osteoblastic cell line. Since these cells express OPN, was first examined whether depletion of OPN by siRNA influences the capacity of GiPCR ligands to induce cell signaling as measured by CDS in MC3T3-E1 cells. […] Similar results were obtained when cells were stimulated with oxymethazolin. […] To confirm this hypothesis, cells were treated with exogenous recombinant OPN (rOPN) prior to DAMGO and oxymethazolin stimulation.

rOPN: exogenous recombinant osteopontin (R&D systems)
response to isoproterenol (similar with desmopressin) ([1]; rOPN vs PBS-treated cells): higher
greater responsiveness to isoproterenol stimulation than PTX-treated cells ([1]; rOPN-treated vs PTX-treated cells): 30%
integrated response to DAMGO and oxymethazolin after rOPN treatment [2]: decrease in the integrated response in a concentration-dependent manner
